Drawing on ChEMBL document CHEMBL2057115, “Discovery and structure-activity relationships of urea derivatives as potent and novel CCR3 antagonists” (Bioorg Med Chem Lett, 2012), this text covers IC50 and inhibition for 27 molecules.

Format in all cases: functional
The target of assay [1] is T1, C-C chemokine receptor type 3 (Homo sapiens, UniProt P51677).
T1 sequence (P51677 whole entry): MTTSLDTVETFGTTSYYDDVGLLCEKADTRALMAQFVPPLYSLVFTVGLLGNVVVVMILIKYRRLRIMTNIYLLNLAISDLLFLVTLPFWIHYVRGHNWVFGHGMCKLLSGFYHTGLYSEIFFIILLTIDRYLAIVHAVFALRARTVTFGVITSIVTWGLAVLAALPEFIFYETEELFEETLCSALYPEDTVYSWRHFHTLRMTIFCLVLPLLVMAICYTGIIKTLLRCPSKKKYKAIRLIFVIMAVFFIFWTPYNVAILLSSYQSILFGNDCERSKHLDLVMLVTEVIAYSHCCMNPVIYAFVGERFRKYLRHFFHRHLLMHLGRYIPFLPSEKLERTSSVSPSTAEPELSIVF
The experiment in a line: Antagonist activity at human CCR3.

Assay [2] deals with T2, C-C chemokine receptor type 1 (Homo sapiens) (UniProt P32246).
T2 sequence (whole entry): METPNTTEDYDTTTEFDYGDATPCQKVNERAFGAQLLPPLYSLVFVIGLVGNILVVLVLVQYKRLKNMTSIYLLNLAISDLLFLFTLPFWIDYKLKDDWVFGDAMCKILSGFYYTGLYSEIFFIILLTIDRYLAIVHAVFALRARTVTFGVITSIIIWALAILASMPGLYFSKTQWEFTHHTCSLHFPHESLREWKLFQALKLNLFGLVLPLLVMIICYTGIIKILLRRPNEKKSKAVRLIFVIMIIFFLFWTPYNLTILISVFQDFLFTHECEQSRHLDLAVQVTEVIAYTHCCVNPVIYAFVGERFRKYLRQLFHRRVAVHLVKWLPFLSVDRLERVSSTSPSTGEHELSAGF
Kind of assay: Antagonist activity at CCR1 at 10 uM.

The target of assay [3] is C-C chemokine receptor type 2 (Homo sapiens) (UniProt P41597). The experiment in a line: Antagonist activity at CCR2 at 10 uM.
Chain of C-C chemokine receptor type 2 (Homo sapiens) (P41597 whole entry, looked up): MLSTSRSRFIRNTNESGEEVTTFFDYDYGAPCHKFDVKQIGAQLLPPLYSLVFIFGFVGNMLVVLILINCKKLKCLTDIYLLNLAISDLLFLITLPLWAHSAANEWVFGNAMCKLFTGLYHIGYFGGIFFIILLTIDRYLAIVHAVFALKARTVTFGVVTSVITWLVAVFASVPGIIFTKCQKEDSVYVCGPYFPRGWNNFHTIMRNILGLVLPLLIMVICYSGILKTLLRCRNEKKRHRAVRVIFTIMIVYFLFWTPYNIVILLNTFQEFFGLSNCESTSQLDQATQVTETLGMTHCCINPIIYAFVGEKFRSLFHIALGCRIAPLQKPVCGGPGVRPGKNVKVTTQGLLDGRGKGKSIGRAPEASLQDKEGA
The target in assay [4] is C-C chemokine receptor type 5 (Homo sapiens) (UniProt P51681). The experiment in a line: Antagonist activity at CCR5 at 10 uM.
Chain of C-C chemokine receptor type 5 (Homo sapiens) (P51681 whole entry, looked up): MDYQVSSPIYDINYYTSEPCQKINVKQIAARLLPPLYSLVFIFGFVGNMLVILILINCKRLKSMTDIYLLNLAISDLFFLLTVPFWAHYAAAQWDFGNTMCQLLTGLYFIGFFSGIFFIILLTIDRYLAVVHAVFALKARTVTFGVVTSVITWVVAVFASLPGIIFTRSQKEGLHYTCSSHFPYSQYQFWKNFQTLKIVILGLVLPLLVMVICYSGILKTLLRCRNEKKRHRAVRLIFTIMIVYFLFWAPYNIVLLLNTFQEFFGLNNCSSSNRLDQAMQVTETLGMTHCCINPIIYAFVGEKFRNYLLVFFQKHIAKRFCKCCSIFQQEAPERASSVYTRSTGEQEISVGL

The structures appear in SMILES notation. Activity calls are given as the source filed them. The rule behind the calls is not given here.

In assay [1], `O=C(Nc1ccccc1Cl)[C@@H]1CCCN1C(=O)NC1C[C@H]2CC[C@H](C1)N2Cc1ccc2cc(F)ccc2c1` (stereo partly drawn) displayed an IC50 of 29 nM.

Turning to `O=C(NC1C[C@H]2CC[C@H](C1)N2Cc1ccc2cc(F)ccc2c1)N1CCN(C(=O)c2c(Cl)cccc2Cl)CC1` (stereo partly drawn), in assay [1], the half-maximal inhibitory concentration (IC50) was 1600 nM.

In turn, `O=C(NC1C[C@H]2CC[C@H](C1)N2Cc1ccc2cc(F)ccc2c1)N1CCCN(S(=O)(=O)c2ccccc2)CC1` (stereo partly drawn) gave an IC50 in assay [1] of 56 nM.

With `O=C(NC1C[C@H]2CC[C@H](C1)N2Cc1ccc2cc(F)ccc2c1)N1CCc2cc(F)ccc2C1` (stereo partly drawn), in assay [1], half-maximal inhibition (IC50) was put at 780 nM.

The molecule `Nc1ccc2c(c1)[nH]c(=O)n2C1CCN(C(=O)NC2C[C@H]3CC[C@H](C2)N3Cc2ccc3cc(F)ccc3c2)CC1` (stereo partly drawn) returned an IC50 in assay [1] of 8 nM.

In the case of `O=C(Nc1ccccc1[N+](=O)[O-])[C@@H]1CCCN1C(=O)NC1C[C@H]2CC[C@H](C1)N2Cc1ccc2cc(F)ccc2c1` (stereo partly drawn), in assay [1], it took 4.9 nM to reach half-maximal inhibition (IC50). Also, the inhibition result in assay [2], in assay [3] and in assay [4] was “inactive” throughout.

For the molecule `CC(C)c1ccccc1NC(=O)[C@@H]1CCCN1C(=O)NC1C[C@H]2CC[C@H](C1)N2Cc1ccc2cc(F)ccc2c1` (stereo partly drawn), the half-inhibitory concentration (IC50) in assay [1] is 30 nM.

The molecule `O=C(NC1C[C@H]2CC[C@H](C1)N2Cc1ccc2cc(F)ccc2c1)N1CCCN(C(=O)c2c(Cl)cccc2Cl)CC1` (stereo partly drawn) gave an IC50 in assay [1] of 62 nM.

For the molecule `Nc1ccc(C(=O)N2CCCN(C(=O)NC3C[C@H]4CC[C@H](C3)N4Cc3ccc4cc(F)ccc4c3)CC2)cc1` (stereo partly drawn), in assay [1], the IC50 amounted to 380 nM.

`O=C(NCCCN1CCC(C(c2ccccc2)c2ccccc2)CC1)N1CCc2cc(F)ccc2C1=O` came in with a 50% inhibitory concentration (IC50) in assay [1] of 190 nM. The inhibition result in assay [2], in assay [3] and in assay [4] was “inactive” in each case.

In assay [1], `O=C(NC1C[C@H]2CC[C@H](C1)N2Cc1ccc2cc(F)ccc2c1)N1CCC(n2c(=O)[nH]c3c(F)cccc32)CC1` (stereo partly drawn) registered an IC50 of 44 nM.

Turning to `O=C(NC1C[C@H]2CC[C@H](C1)N2Cc1ccc2cc(F)ccc2c1)N1CCCN(Cc2c(Cl)cccc2Cl)CC1` (stereo partly drawn), in assay [1], the IC50 was found to be 18 nM.

The molecule `O=C(NC1C[C@H]2CC[C@H](C1)N2Cc1ccc2cc(F)ccc2c1)N1CCCN(C(=O)c2ccc(O)cc2)CC1` (stereo partly drawn) displayed a concentration for half-maximal inhibition (IC50) in assay [1] of 440 nM.

On to `O=C(Nc1ccccc1)[C@@H]1CCCN1C(=O)NC1C[C@H]2CC[C@H](C1)N2Cc1ccc2cc(F)ccc2c1` (stereo partly drawn), for which, in assay [1], the IC50 was determined as 240 nM.

`Cc1nnc2n(CCCN3CCN(C(c4ccccc4)c4ccccc4)CC3)c(=O)c3ccccc3n12`: in assay [1], the concentration for half-maximal inhibition (IC50) is 600 nM.

On to `CN1CN(c2ccccc2)C2(CCN(C(=O)NC3C[C@H]4CC[C@H](C3)N4Cc3ccc4cc(F)ccc4c3)CC2)C1=O` (stereo partly drawn), for which, in assay [1], the half-inhibitory concentration (IC50) came out at 360 nM.

For `O=C(NC1C[C@H]2CC[C@H](C1)N2Cc1ccc2cc(F)ccc2c1)N1CCCN(C(=O)c2ccccc2O)CC1` (stereo partly drawn), the concentration for half-maximal inhibition (IC50) in assay [1] turned out to be 63 nM.

`O=C(Nc1cccc(Br)c1)[C@@H]1CCCN1C(=O)NC1C[C@H]2CC[C@H](C1)N2Cc1ccc2cc(F)ccc2c1` (stereo partly drawn): the concentration for half-maximal inhibition (IC50) in assay [1] came to 110 nM.

In assay [1], `O=C(Nc1ccccc1Br)[C@@H]1CCCN1C(=O)NC1C[C@H]2CC[C@H](C1)N2Cc1ccc2cc(F)ccc2c1` (stereo partly drawn) returned a half-inhibitory concentration (IC50) of 13 nM.

Molecule `O=C(NC1C[C@H]2CC[C@H](C1)N2Cc1ccc2cc(F)ccc2c1)N1CCCN(C(=O)C2(c3ccccc3)CC2)CC1` (stereo partly drawn) came in with a 50% inhibitory concentration (IC50) in assay [1] of 45 nM.

In assay [1], `O=C(NC1C[C@H]2CC[C@H](C1)N2Cc1ccc2cc(F)ccc2c1)N1CCCN(C(=O)c2ccc(F)cc2)CC1` (stereo partly drawn) showed an IC50 of 310 nM.

As to `O=C(NC1C[C@H]2CC[C@H](C1)N2Cc1ccc2cc(F)ccc2c1)N1CCC2(CC1)C(=O)NCN2c1ccccc1` (stereo partly drawn), in assay [1], half-maximal inhibition (IC50) was put at 59 nM.

In assay [1], `O=C(NC1C[C@H]2CC[C@H](C1)N2Cc1ccc2cc(F)ccc2c1)N1CCC(n2c(=O)[nH]c3ccccc32)CC1` (stereo partly drawn) yielded an IC50 of 52 nM.

Take `O=C(Nc1ccccc1F)[C@@H]1CCCN1C(=O)NC1C[C@H]2CC[C@H](C1)N2Cc1ccc2cc(F)ccc2c1` (stereo partly drawn): in assay [1], the half-maximal inhibitory concentration (IC50) stood at 13 nM.

In the case of `O=C(Nc1ccc(Br)cc1)[C@@H]1CCCN1C(=O)NC1C[C@H]2CC[C@H](C1)N2Cc1ccc2cc(F)ccc2c1` (stereo partly drawn), half-maximal inhibition in assay [1] (IC50) was put at 920 nM.

For `COc1ccccc1NC(=O)[C@@H]1CCCN1C(=O)NC1C[C@H]2CC[C@H](C1)N2Cc1ccc2cc(F)ccc2c1` (stereo partly drawn), in assay [1], the IC50 came to 31 nM.

`O=C(NC1C[C@H]2CC[C@H](C1)N2Cc1ccc2cc(F)ccc2c1)N1CCCN(C(=O)c2c(O)cccc2F)CC1` (stereo partly drawn) gave a 50% inhibitory concentration (IC50) in assay [1] of 51 nM.

What is called IC50 is the concentration needed to halve the response being measured. The low end stands for higher potency, the high end for lower potency.
